Columns and labels:
C. elegans [1] = assay: Worm survival assay in microfluidics; assay type: in vivo; settings: thymol 50 μM, worms treated in microfluidics (conditions mimicking IF), vs vehicle, log rank test
Method: A worm suspension is first injected into a microfluidic device. The geometry of the device is optimized for retaining inside the worm culture chamber only adult worms by simply selecting the correct flow rate for the sample injection. Upon isolation of a defined worm population inside the chamber, worms are cultured and treated on-chip with thymol at controlled temperature of 20° C. Worm culture is maintained in the chamber by the perfusion of E. coli. The microfluidic chip is integrated onto an inverted microscope integrated with a camera that continuously records videos (every 10 hours). Images are longitudinally analyzed by different parameters that include readouts of body bends frequency, velocity, curvature and amplitude of the movement at the head, tail and middle of the body, which automatically provide information about worms health span and vitality.

C. elegans [2] = assay: Worm survival assay on solid agar plate; assay type: in vivo; settings: thymol 50 M (so in the source), solid agar plates, n=60 per group, vs vehicle (DMSO 1%), log rank test
Method: C. elegans strains were cultured at 20° C. on nematode growth media agar plates seeded with E. coli strain OP50. Thymol was dissolved in DMSO and added at the indicated concentrations just before pouring the plates. Worms were exposed to compounds during the full life from eggs until death. To ensure a permanent exposure to the compound, plates were changed twice a week. The control population was treated with the corresponding concentration of DMSO at 1%. For lifespan measurements, parental F0 L4 worms were grown to reach adulthood and lay eggs on the treatment plates. The derived F1 worms were therefore exposed to compounds during the full life from eggs until death. Adults were daily scored manually as dead or alive. A worm was considered dead if it was not moving spontaneously and it was not responding to a touch on the head. The control population was treated with the corresponding concentration of DMSO at 1%.

## Cc1ccc(C(C)C)c(O)c1 [thymol]
C. elegans [1]
  effect on lifespan: increases lifespan
C. elegans [2]
  effect on lifespan: no significant effects on lifespan

From patent US20240415786A1, “COMPOSITIONS AND METHODS USING AN AUTOPHAGY INDUCER TO ENHANCE INTERMITTENT FASTING” (SOCIETE DES PRODUITS NESTLE S.A., priority 2021, published 2024)
